A short description of data set [1]: Solubilization / solubility of paclitaxel in oily contrast medium.
Protocol: (§1) One milliliter of Lipiodol (Lipiodol Ultra-fluid, Laboratoire Guerbet, France, Iodine content 38% by weight) was used as an oily contrast medium. Lipiodol and 2, 4, 6, 8, 10 or 11 mg of paclitaxel (Samyang Genex, Korea) were added in test tubes (micro test tubes with safety lock, polyethylene, 1.5 ml, Eppendorf AG, Germany) and solubilized by stirring at room temperature. To speed up the solubilization process, it is acceptable to raise the temperature to 35˜45° C. or to sonicate in a bath type sonicator.
(§2) One milliliter of Lipiodol (Lipiodol Ultra-fluid, Laboratoire Guerbet, France, Iodine content 38% by weight) and 10 mg of paclitaxel (Samyang Genex, Korea) were added in test tubes and solubilized by stirring at room temperature. To speed up the solubilization process, the temperature of the mixture was raised to 40° C.
(§3) A mixture of 1 ml of Lipiodol (Lipiodol Ultra-fluid, Laboratoire Guerbet, France, Iodine content 38% by weight) and 0.01 ml of tricaprylin (Sigma Chemical Co.) and 12 mg of paclitaxel (Samyang Genex, Korea) were added in a test tube and solubilized by stirring at room temperature. To speed up the solubilization process, the composition was sonicated in a bath type sonicator.
A short description of a further data set: physchem. The conditions noted are these: oil or lipid.

The structures appear in SMILES notation. In brackets after ≈: the same amount, converted by molar mass. Where only a bound is given, the exact number is not on record here.

Here are results for 1 compound from US20100041744A1, “OILY PACLITAXEL COMPOSITION AND FORMULATION FOR CHEMOEM[…] PREPARATION METHOD THEREOF” (priority 2001, published 2010).

Protocol for physchem: as §1, §2, §3

Take `CC(=O)O[C@H]1C(=O)[C@@]2(C)[C@H]([C@H](OC(=O)c3ccccc3)[C@]3(O)C[C@H](OC(=O)[C@H](O)[C@@H](NC(=O)c4ccccc4)c4ccccc4)C(C)=C1C3(C)C)[C@]1(OC(C)=O)CO[C@@H]1C[C@@H]2O` [paclitaxel]: in data set [1], the “solubility of paclitaxel in mixed oil system of lipiodol/tricaprylin compared with lipiodol alone” value is “higher”. The solubility in the data set “physchem” (Lipiodol (oily contrast medium), 26 °C, thermodynamic from solid) is about 10000 µg/mL (≈ 11.7 mM); in the data set “physchem”, at most 13000 µg/mL.
